*1 amine or outer side, *2 acyl side, *3 side chain or, on linkers, in order; H or OH if unused. Where a SMILES comes first, the peptide text is derived from it. Bridges are numbered along the chain shown (N, C = ends). [ ]: non-standard residue; d: D form. X1 = O=C(CC1(S[*:2])CCCCC1)[*:1]; αMeV = CC(C)[C@](C)(N)C(=O)O; Aib = CC(C)(N)C(=O)O
How the values were obtained:
[1] = target: T1, V2-vasopressin receptors (Sus scrofa, UniProt P32307); test: receptor binding ability measured by inhibition of 3H-LVP binding; settings: read-out: Pig V2 KB
T1 construct: in the medullary tissue of hog kidneys; from tissue; host or cells: hog kidney medullary tissue
Procedure: (§1) Antagonistic activity at the V2 -vasopressin receptors is determined in a protocol which determines in vitro activity in pig tissue or in vivo diuretic activity in the hydropenic rat (ED300 μg/kg). These procedures are described in the literature. F. Stassen et al., 1st International Conference on Diuretics, Miami, Fla., March (1984).
(§2) Antagonistic activity at the V1 -vasopressin receptors is determined in a protocol which measures the reversal of the vasopressin induced contraction of rat thoracic aorta tissue. This is expressed as KB (nM) in the table below. Such anti-pressor activity is confirmed in a similar in vitro protocol using the plasma membranes of rat liver. V2 -vasopressin antagonism is determined as receptor binding ability measured by inhibition of 3H-LVP binding (KB as nM), by inhibition of adenylate cyclase activation by vasopressin in the medullary tissue of hog kidneys (Ki as nM) or in vivo in the […] rat protocol (ED300 μg/kg). These procedures are described in the literature: F. Stassen et al., J. Pharmacology and Experimental Therapeutics, 223 50 (1982).

[2] = target: T1, V2-vasopressin receptors; test: inhibition of adenylate cyclase activation by vasopressin in the medullary tissue of hog kidneys; format: biochemical; settings: hog kidney medullary tissue, vasopressin-activated adenylate cyclase; read-out: Pig V2 Ki
Procedure: as §1
as §2, with “Such anti-pressor activity is confirmed in a similar in vitro protocol using the plasma membranes of rat liver.” left out

[3] = target: T2, V1-vasopressin receptors (Rattus norvegicus, UniProt P30560); test: reversal of the vasopressin induced contraction of rat thoracic aorta tissue
T2 construct: vasopressin induced contraction of rat thoracic aorta tissue; from tissue; host or cells: rat thoracic aorta tissue
Procedure: as §2

T1 sequence (P32307 whole entry): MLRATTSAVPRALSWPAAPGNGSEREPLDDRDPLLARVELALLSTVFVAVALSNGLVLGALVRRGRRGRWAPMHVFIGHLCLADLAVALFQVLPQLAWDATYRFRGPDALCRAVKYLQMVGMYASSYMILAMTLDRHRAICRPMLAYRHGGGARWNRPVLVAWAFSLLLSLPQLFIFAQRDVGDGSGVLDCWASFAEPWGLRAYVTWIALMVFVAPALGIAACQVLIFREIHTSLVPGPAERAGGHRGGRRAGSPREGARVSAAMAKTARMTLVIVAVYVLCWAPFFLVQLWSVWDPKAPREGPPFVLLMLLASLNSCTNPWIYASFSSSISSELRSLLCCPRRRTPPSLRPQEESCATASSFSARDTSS
T2 sequence (P30560 whole entry): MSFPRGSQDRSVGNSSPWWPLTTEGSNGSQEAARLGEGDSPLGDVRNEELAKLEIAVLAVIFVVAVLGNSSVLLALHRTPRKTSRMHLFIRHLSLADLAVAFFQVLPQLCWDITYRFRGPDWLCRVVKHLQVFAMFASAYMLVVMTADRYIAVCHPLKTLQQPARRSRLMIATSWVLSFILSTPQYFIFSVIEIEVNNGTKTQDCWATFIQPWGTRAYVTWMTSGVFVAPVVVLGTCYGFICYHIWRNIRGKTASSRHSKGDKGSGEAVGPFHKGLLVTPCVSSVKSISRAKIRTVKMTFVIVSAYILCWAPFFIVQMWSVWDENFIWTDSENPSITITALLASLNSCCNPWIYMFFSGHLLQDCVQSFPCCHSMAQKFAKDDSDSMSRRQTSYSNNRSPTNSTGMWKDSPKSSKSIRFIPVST

CCOc1ccc(C[C@H]2NC(=O)CC3(CCCCC3)SSC[C@@H](C(=O)N3CCC[C@H]3C(=O)N[C@@H](CCCNC(=N)N)C(=O)NCC(N)=O)NC(=O)[C@H](CC(N)=O)NC(=O)[C@](C)(C(C)C)NC(=O)[C@H](Cc3ccccc3)NC2=O)cc1 [C, [1-(β,β-cyclopentamethylene-β-mercaptopropionic acid)-2-(O-ethyl-D-tyrosine)-4-α-methylvaline-8-arginine]vasopressin] ([dY](Et)F[αMeV]NCPRG-NH2; linker N-5 via X1)
Kb [1]: 11 nM
Ki [2]: 31 nM

CCOc1ccc(C[C@H]2NC(=O)CC3(CCCCC3)SSC[C@@H](C(=O)NC(C)(C)C(=O)N[C@@H](CCCNC(=N)N)C(=O)NCC(N)=O)NC(=O)[C@H](CC(N)=O)NC(=O)[C@H](C(C)C)NC(=O)[C@H](Cc3ccccc3)NC2=O)cc1 [A, [1-(β,β-cyclopentamethylene-β-mercaptopropionic acid)-2-(O-ethyl-D-tyrosine)-4-valine-7-α-aminoisobutyric acid-8-arginine]vasopressin] ([dY](Et)FVNC[Aib]RG-NH2; linker N-5 via X1)
Kb [1]: 9.2 nM
Ki [2]: 18 nM

COc1ccc(C[C@@H]2NC(=O)CC3(CCCCC3)SSC[C@@H](C(=O)N3CCC[C@H]3C(=O)N[C@@H](CCCN=C(N)N)C(=O)NCC(N)=O)NC(=O)[C@H](CC(N)=O)NC(=O)[C@H](C(C)C)NC(=O)[C@H](Cc3ccccc3)NC2=O)cc1 [F, [1-(β,β-cyclopentamethylene-β-mercaptopropionic acid)-2-(O-methyl-L-tyrosine)-4-valine-8-arginine]vasopressin, reference compound] (Y(Me)FVNCPRG-NH2; linker N-5 via X1)
Kb [1]: 35 nM
Ki [2]: 88 nM
Kb [3]: 12 nM

CCOc1ccc(C[C@H]2NC(=O)CC3(CCCCC3)SSC[C@@H](C(=O)N3CCC[C@H]3C(=O)N[C@@H](CCCN=C(N)N)C(=O)NCC(N)=O)NC(=O)[C@H](CC(N)=O)NC(=O)[C@H](C(C)C)NC(=O)[C@H](Cc3ccccc3)NC2=O)cc1 [G, [1-(β,β-cyclopentamethylene-β-mercaptopropionic acid)-2-(O-ethyl-D-tyrosine)-4-valine-8-arginine]vasopressin, reference compound] ([dY](Et)FVNCPRG-NH2; linker N-5 via X1)
Kb [1]: 6.7 nM
Kb [3]: 1.4 nM

CCOc1ccc(C[C@H]2NC(=O)CC3(CCCCC3)SSC[C@@H](C(=O)NC(C)(C)C(=O)N[C@@H](CCCNC(=N)N)C(N)=O)NC(=O)[C@H](CC(N)=O)NC(=O)[C@H](C(C)C)NC(=O)[C@H](Cc3ccccc3)NC2=O)cc1 [E, [1-(β,β-cyclopentamethylene-β-mercaptopropionic acid)-2-(O-ethyl-D-tyrosine)-4-valine-7-α-aminoisobutyric acid-8-arginine-9-desglycine]vasopressin] ([dY](Et)FVNC[Aib]R-NH2; linker N-5 via X1)
Kb [1]: 15 nM
Ki [2]: 16 nM

CCOc1ccc(C[C@H]2NC(=O)CC3(CCCCC3)SSC[C@@H](C(=O)N3CCC[C@H]3C(=O)N[C@@H](CCCNC(=N)N)C(N)=O)NC(=O)[C@H](CC(N)=O)NC(=O)C(C)(C)NC(=O)[C@H](Cc3ccccc3)NC2=O)cc1 [B, [1-(β,β-cyclopentamethylene-β-mercaptopropionic acid)-2-(O-ethyl-D-tyrosine)-4-α-aminoisobutyric acid-8-arginine-9-desglycine]vasopressin] ([dY](Et)F[Aib]NCPR-NH2; linker N-5 via X1)
Kb [1]: 580 nM
Ki [2]: 140 nM

COc1ccc(C[C@@H]2NC(=O)CC3(CCCCC3)SSC[C@@H](C(=O)N3CCC[C@H]3C(=O)N[C@@H](CCCNC(=N)N)C(=O)NCC(N)=O)NC(=O)[C@H](CC(N)=O)NC(=O)[C@](C)(C(C)C)NC(=O)[C@H](Cc3ccccc3)NC2=O)cc1 [D, [1-(β,β-cyclopentamethylene-β-mercaptopropionic acid)-2-(O-methyl L-tyrosine)-4-α-methylvaline-8-arginine]vasopressin] (Y(Me)F[αMeV]NCPRG-NH2; linker N-5 via X1)
Kb [1]: 170 nM
Ki [2]: 490 nM
Kb [3]: 18 nM

Source: patent publication US4876243A, “Vasopressin compounds” (Smithkline Beckman Corporation, priority 1987, dated 1989)
